Legend:
[1] = Inhibition of human CES2A using fluorescein diacetate as fluorescent substrate preincubated for 3 mins followed by substrate addition and measured after 30 mins by fluorescence based analysis
[2] = Inhibition of human CES1A using NLMe as substrate preincubated for 3 mins followed by substrate addition and measured after 20 mins by Spectra max microplate reader analysis
[3] = Metabolic stability in human liver microsomes assessed as half life at 10 uM preincubated for 3 mins followed by NADPH addition and measured upto 120 mins by HPLC analysis; format: ADME, Microsome; details: time < 123 min
[4] = Binding affinity to human CES2A assessed as inhibition constant using fluorescein diacetate as fluorescent substrate preincubated for 3 mins followed by substrate addition and measured after 30 mins by Lineweaver-Burk plot analysis
[5] = Metabolic stability in human liver microsomes assessed as half life at 10 uM preincubated for 3 mins followed by UDPGA addition and measured upto 120 mins by HPLC analysis; format: ADME, Microsome; details: time < 123 min
[6] = Inhibition of intracellular CES2A in human HepG2 cells assessed as reduction in NCEN hydrolysis incubated for 1 hr; format: cell-based
[7] = species on record: Homo sapiens; experiment: Selectivity ratio of IC50 for human CES1A to IC50 for human CES2A
[8] = system: HepG2; experiment: Cytotoxicity against human HepG2 cells assessed as reduction in cell viability at 10 uM measured after 24 hrs by CCK-8 method; format: toxicity, cell-based; details: hepg2, 24 h

In the case of `CCCCCCCCC(=O)c1cccc2oc(-c3ccc(OC)cc3O)cc12`, the IC50 [1] is reported as 140 nM.
With `CCCCCCCCC(=O)c1cccc2oc(-c3c(O)cccc3C(=O)CCCCCC)cc12` the IC50 [1] was 54 nM.
Work on `CCCCCCC(=O)c1c(C)ccc2oc(-c3cc(OC)ccc3O)cc12` yielded an IC50 [2] of 7260 nM, a half-life at 10 µM [3] of 2.1 h and an IC50 [1] of 2 nM. It also gave a Ki [4] of 1.4 nM, a half-life at 10 µM [5] of 1.62 h and an IC50 ([6]; Homo sapiens, HepG2, 1 h, read-out: IC50) of 52 nM. The IC50 ([6]; hepg2) was “Dose-Dependent Effect”, the Ratio IC50 [7] was 4540 and the Activity [8] was “Non-Toxic”.
For `CCCCCCCCC(=O)c1cccc2oc(-c3ccccc3O)cc12`, the IC50 [1] was 32 nM.
With `CCCCCCC(=O)c1cccc2oc(-c3cc(OC)ccc3O)cc12` the IC50 [1] was 8 nM.
In the case of `CCCCCCCCC(=O)c1cccc2oc(-c3ccccc3C(=O)OC)cc12`, the IC50 [1] is reported as 100 nM.
In the case of `CCCCCCCCC(=O)c1cccc2oc(-c3cc(OC)ccc3O)cc12`, the IC50 [2] is reported as 2610 nM and the IC50 [1] is reported as 22 nM.
Work on `CCCCCCCCC(=O)c1cccc(O)c1-c1cc2c(C(=O)CCC)cccc2o1` yielded an IC50 [1] of 120 nM.
Molecule `CCCCCCCCC(=O)c1cccc2oc(-c3ccccc3)cc12` has an IC50 [1] of 5410 nM.
`CCCCCCCCC(=O)c1cccc2oc(-c3ccc(C)cc3C(=O)OC)cc12` showed an IC50 [1] of 310 nM.
`CCCCCCCCC(=O)c1cccc(O)c1-c1cc2ccc(OC)cc2o1` gave an IC50 [1] of 190 nM.
For `CCCCCCCCC(=O)c1cccc(O)c1-c1cc2c(C(=O)CCCCCCCC)cccc2o1`, the IC50 [1] was 1090 nM.
With `CCCC(=O)c1cccc2oc(-c3cc(OC)ccc3O)cc12` the IC50 [1] was 21 nM.
Molecule `CCCCCCCCC(=O)c1cccc2oc(-c3ccc(C)cc3C(=O)O)cc12` has an IC50 [1] of 110 nM.
In the case of `CCCCCCC(=O)c1cccc2oc(-c3ccc(C)cc3C(=O)O)cc12`, the IC50 [1] is reported as 490 nM.
With `C[C@]12CC[C@H]3[C@@H](CCC4=CC(=O)CC[C@@]43C)[C@@H]1CC[C@@H]2O` [TESTOSTERONE] the half-life at 10 µM [3] was 0.46 h.
`CCCCCCCCC(=O)c1cccc(OC)c1-c1cc2c(C(=O)CCCCCCCC)cccc2o1` gave an IC50 [1] of 600 nM.
In the case of `CCCCCCC(=O)c1cccc2oc(-c3cc(OCC)ccc3O)cc12`, the IC50 [1] is reported as 9 nM.
For `CCCCCCCCC(=O)c1cccc2oc(-c3c(O)cccc3C(=O)CCC)cc12`, the IC50 [1] was 29 nM.
Molecule `CCCCCCCCC(=O)c1cccc(O)c1-c1cc2c(C(=O)CCCCCC)cccc2o1` has an IC50 [1] of 58 nM.
Molecule `CCCCCCCCC(=O)c1cccc(O)c1-c1cc2cc(C)ccc2o1` has an IC50 [1] of 84 nM.
`CCCCCCCCC(=O)c1cccc(O)c1-c1cc2ccccc2o1` showed an IC50 [1] of 230 nM.
In the case of `CCCCCCC(=O)c1cccc2oc(-c3ccc(C)cc3C(=O)OC)cc12`, the IC50 [1] is reported as 300 nM.
Molecule `CN(C)C(=O)C(CCN1CCC(O)(c2ccc(Cl)cc2)CC1)(c1ccccc1)c1ccccc1` [LOPERAMIDE] has an IC50 [1] of 350 nM.
With `CCCCCCCCC(=O)c1cccc2oc(-c3ccccc3C(=O)O)cc12` the IC50 [1] was 130 nM.
`CCCCCCCCC(=O)c1cccc2oc(-c3cc(C)ccc3O)cc12` showed an IC50 [1] of 54 nM.
Work on `O=c1ccc2ccc(O)cc2o1` [UMBELLIFERONE] yielded a half-life at 10 µM [5] of 0.304 h.
`CCCCCCC(=O)c1cccc2oc(-c3cc(C(F)(F)F)ccc3O)cc12` showed an IC50 [1] of 20 nM.
Molecule `CCCCCCC(=O)c1cccc2oc(-c3cc(C(=O)OC)ccc3O)cc12` has an IC50 [1] of 35 nM.
`CCCCCCCCC(=O)c1cccc(O)c1-c1cc2cc(OC)ccc2o1` showed an IC50 [1] of 100 nM.
Molecule `CCCCCCC(=O)c1cccc2oc(-c3ccccc3C(=O)O)cc12` has an IC50 [1] of 360 nM.
Molecule `CCCCCCC(=O)c1cccc2oc(-c3ccccc3C(=O)OC)cc12` has an IC50 [1] of 250 nM.
Work on `CCCCCCCCC(=O)c1cccc(OC(C)=O)c1-c1cc2c(C(=O)CCCCCCCC)cccc2o1` yielded an IC50 [1] of 690 nM.
`CCCCCCC(=O)c1cccc2oc(-c3cc(C(=O)O)ccc3O)cc12` gave an IC50 [1] of 200 nM.

— ChEMBL document CHEMBL5625217, “New bysspectin A derivatives as potent inhibitors of human carboxylesterase 2A” (Eur J Med Chem, 2023)
